Results published in US20240238268A1, “TREATMENTS AND METHODS FOR TREATING ALZHEIMER'S DISEASE” (Board of Supervisors of Louisiana State University and …, priority 2021, published 2024).

Tests used:
Assay type in all cases: in vivo, mouse
[1] = tested on: phosphorylated tau (pTau); experiment: Phosphorylated tau level in brain, capillary-phoresis; conditions: treated 3xTg mice; controls = 100%
From the text: Capillary-phoresis immunoassay via ProteinSimple®: Quantification of all protein targets was achieved using Simple Western analysis in a Jess™ apparatus per the manufacturer's protocol (ProteinSimple, Bio-techne, Minneapolis, MN). Protein was extracted from dissected tissue in an extraction buffer consisting of T-PER® Tissue Protein Extraction Reagent (Cat. No. 78510, Thermo Fischer Scientific, Waltham, MA) and Halt™ Protease Inhibitor Cocktail (Cat. No. 87785, Thermo Fischer Scientific, Waltham, MA). Following homogenization and centrifugation (10,000×g, 5 min, 4° C.), protein concentration was determined in tissue protein supernatant samples using DC Protein Assay (Cat. No. 5000112, Bio-Rad Laboratories, Hercules, California) according to manufacturer instructions. […] Antibody diluent (ProteinSimple, Bio-techne, Minneapolis, MN) was used for all antibody dilutions as follows: PRMT4 (1:50, RRID: AB_2068436), PRMT6 (1:100, Cell Signaling Technology cat. 14641), eNOS (1:200, RRID: AB_10850618), nNOS (1:100, RRID: AB_2152488), iNOS (1:100, RRID: AB_10000625), DDAH2 (1:50, RRID: AB_2640442) Antibodies were detected using HRP-conjugated secondary anti-rabbit, and -mouse. Relative protein levels were calculated by measuring the area under the peak of a chemiluminescent chromatogram and normalized to total capillary chemiluminescence for a given sample. […]

aged 3xTg-AD female mice [2] = experiment: Neurovascular coupling: microvessel diameter after whisker stimulation, two-photon laser scanning microscopy; conditions: TP-064 30 mg/kg for 7 days, IP or PRMT4-AAV knockdown
Description: FIGS. 11A-11D show neurovascular coupling dysfunction was alleviated with specific PRMT4 inhibitor (TP-064) or PRMT4-AAV knockdown in aged 3xTg-AD female mice. In FIG. 11A, neurovascular coupling was evaluated based on vascular tonicity changes in response to whisker stimulation (30 sec, 4 Hz) via two-photon laser scanning microscopy. FITC-dextran was injected IV for visualization of cerebral microvessels (Z=100 μm depth) in the cortex. In FIG. 11B, vessel diameters were measured before/after whisker stimulation, and before/after TP-064 (30 mg/kg for 7 days, IP) or PRMT4-AAV knockdown.
Determining if inhibition of PRMT4 can promote neurovascular coupling. […] One reason for this is the loss of neurovascular coupling is associated with the early progression of AD. Whisker-barrel stimulation is a well-established model for examining neurovascular coupling [Rodgers (our in-house collaborator) et al., 2006, 2008, 2009]. The inventors measured cortical microvessel vascular reactivity with two-photon laser scanning microscopy while evoking 30 sec of whisker stimulation in mice. Based on the inventors' findings that aged 3xTg-AD female mice had enhanced PRMT4 expression (FIGS. 2A-3C and 5A-5D), the inventors' results evidence that aged 3xTg-AD female mice presented decreased cortical microvessel diameter as compared to aged 3xTg-AD male mice 30 see (4 Hz) after whisker stimulation. […]

C57 mice = experiment: Neurovascular coupling: microvessel diameter, two-photon laser scanning microscopy, C57 mice; conditions: decreased PRMT4 via TP-064/PRMT4-AAV
aged 3xTg-AD female mice [3] = experiment: Leukocyte rolling velocity, two-photon laser scanning microscopy
Description: FIGS. 17A-17D show leukocyte rolling velocity was reduced in aged 3xTg-AD female mice.
Leukocytes velocity measurements were performed by linescans (512 lines/sec). *p<0.05 compared to aged 3xTg-AD male or C57 female evaluated by unpaired t-test. FIGS. 18A and 18B are capillary-based immunoassay and associated graphs showing PRMT4 inhibitor (TP-064) or AAV knockdown of PRMT4 reduced GFAP levels in aged 3xTg-AD female mice. Glial fibrillary acidic protein (GFAP, 55 kDa) was increased in aged 3xTg-AD female mice v. C57, which indicates neuroinflammation, but reversed with TP-064 (30 mg/kg, 7 days, IP) or PRMT4-AAV treatment in cortex, shown in FIG. 18A, and hippocampus, shown in FIG. 18B. Protein level was measured by capillary-based immunoassay and normalized to total protein. *p<0.05 as compared to C57, #p<0.05 v. 3xTg-AD evaluated by one-way ANOVA with Tukey's post-hoc analyses.

CNCCN1CCC(c2cc(CN(C)C(=O)c3cccc(Oc4ccccc4)c3)ccn2)CC1 [TP-064, N-Methyl-N-((2-(1-(2-(methylamino)ethyl)piperidin-4-yl)pyridin-4-yl)methyl)-3-phenoxybenzamide]
pTau level in cortex [1]: 234%±8.33 | pTau level in hippocampus [1]: 307%±31.4 | microvessel diameter after whisker stimulation (aged 3xTg-AD female mice [2]): increased | vascular diameters (C57 mice): did not affect | leukocyte rolling velocity (aged 3xTg-AD female mice [3]): increased
